Where a chain is given by its changes, count along the chain named. Read-outs that look alike come from different tables or passages of the source.
Columns and labels:
Experiment in all cases: KinomeScan kinase panel, single concentration 10 µM
Assay type in all cases: binding
KinomeScan kinase panel [1] = target: T1, KinomeScan kinase panel (Homo sapiens, UniProt P00519, T315I); conditions: 10 µM, read-out: score (%)
T1 construct: purchased DiscoveRx (KinomeScan)

KinomeScan kinase panel [2] = target: T2, KinomeScan kinase panel (Homo sapiens, UniProt P00533, G719S); conditions: EGFR(G719S), 10 µM
T2 construct: purchased DiscoveRx (KinomeScan)

KinomeScan kinase panel [3] = target: T3, KinomeScan kinase panel (Homo sapiens, UniProt Q9Y5S2); conditions: MRCKB, 10 µM; read-out: score (%)
T3 construct: purchased DiscoveRx (KinomeScan)
T3 sequence (Q9Y5S2 whole entry): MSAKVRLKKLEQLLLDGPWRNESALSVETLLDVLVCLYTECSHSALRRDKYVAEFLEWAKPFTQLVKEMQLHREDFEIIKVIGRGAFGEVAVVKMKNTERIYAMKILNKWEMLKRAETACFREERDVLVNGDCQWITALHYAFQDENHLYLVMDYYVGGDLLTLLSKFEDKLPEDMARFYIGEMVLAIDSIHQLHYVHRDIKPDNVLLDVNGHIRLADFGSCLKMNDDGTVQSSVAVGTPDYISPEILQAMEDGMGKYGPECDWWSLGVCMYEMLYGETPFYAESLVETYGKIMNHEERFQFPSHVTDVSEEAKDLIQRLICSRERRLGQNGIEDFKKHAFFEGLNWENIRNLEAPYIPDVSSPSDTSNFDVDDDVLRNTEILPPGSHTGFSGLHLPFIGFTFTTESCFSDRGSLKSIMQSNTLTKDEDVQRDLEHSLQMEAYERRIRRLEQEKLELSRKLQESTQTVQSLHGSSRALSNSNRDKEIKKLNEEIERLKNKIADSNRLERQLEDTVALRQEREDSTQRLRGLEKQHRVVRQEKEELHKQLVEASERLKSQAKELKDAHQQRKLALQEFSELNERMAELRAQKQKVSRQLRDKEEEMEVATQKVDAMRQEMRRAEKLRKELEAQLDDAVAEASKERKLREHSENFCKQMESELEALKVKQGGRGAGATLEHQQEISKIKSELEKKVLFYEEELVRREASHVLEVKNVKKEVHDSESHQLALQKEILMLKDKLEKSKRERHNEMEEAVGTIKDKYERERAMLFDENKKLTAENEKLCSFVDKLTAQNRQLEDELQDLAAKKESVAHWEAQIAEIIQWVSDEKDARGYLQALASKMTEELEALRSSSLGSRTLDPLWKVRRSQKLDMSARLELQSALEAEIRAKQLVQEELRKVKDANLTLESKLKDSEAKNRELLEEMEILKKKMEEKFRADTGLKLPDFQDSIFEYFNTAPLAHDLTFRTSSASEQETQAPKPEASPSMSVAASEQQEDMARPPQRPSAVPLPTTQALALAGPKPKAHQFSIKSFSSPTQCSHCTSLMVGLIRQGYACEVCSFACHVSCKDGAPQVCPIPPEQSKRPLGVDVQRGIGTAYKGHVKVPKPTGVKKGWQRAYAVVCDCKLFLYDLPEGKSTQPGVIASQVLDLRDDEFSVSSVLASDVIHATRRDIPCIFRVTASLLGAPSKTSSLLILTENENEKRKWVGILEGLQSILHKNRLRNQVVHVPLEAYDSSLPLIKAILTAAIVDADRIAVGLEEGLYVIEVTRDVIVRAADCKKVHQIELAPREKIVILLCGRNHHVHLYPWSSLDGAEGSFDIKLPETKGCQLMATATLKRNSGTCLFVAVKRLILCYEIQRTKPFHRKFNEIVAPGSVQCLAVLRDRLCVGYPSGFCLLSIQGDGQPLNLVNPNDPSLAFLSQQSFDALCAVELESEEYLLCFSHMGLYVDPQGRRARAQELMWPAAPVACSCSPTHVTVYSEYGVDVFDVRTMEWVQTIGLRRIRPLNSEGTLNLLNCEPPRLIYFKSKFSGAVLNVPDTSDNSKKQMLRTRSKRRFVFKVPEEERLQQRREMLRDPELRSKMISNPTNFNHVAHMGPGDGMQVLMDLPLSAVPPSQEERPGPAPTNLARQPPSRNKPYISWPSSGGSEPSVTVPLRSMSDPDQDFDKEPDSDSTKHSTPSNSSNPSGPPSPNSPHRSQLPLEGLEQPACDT

KinomeScan kinase panel [4] = target: T4, KinomeScan kinase panel (Homo sapiens, UniProt Q15746); conditions: MYLK, 10 µM; read-out: score (%)
T4 construct: purchased DiscoveRx (KinomeScan)
T4 sequence (Q15746 whole entry): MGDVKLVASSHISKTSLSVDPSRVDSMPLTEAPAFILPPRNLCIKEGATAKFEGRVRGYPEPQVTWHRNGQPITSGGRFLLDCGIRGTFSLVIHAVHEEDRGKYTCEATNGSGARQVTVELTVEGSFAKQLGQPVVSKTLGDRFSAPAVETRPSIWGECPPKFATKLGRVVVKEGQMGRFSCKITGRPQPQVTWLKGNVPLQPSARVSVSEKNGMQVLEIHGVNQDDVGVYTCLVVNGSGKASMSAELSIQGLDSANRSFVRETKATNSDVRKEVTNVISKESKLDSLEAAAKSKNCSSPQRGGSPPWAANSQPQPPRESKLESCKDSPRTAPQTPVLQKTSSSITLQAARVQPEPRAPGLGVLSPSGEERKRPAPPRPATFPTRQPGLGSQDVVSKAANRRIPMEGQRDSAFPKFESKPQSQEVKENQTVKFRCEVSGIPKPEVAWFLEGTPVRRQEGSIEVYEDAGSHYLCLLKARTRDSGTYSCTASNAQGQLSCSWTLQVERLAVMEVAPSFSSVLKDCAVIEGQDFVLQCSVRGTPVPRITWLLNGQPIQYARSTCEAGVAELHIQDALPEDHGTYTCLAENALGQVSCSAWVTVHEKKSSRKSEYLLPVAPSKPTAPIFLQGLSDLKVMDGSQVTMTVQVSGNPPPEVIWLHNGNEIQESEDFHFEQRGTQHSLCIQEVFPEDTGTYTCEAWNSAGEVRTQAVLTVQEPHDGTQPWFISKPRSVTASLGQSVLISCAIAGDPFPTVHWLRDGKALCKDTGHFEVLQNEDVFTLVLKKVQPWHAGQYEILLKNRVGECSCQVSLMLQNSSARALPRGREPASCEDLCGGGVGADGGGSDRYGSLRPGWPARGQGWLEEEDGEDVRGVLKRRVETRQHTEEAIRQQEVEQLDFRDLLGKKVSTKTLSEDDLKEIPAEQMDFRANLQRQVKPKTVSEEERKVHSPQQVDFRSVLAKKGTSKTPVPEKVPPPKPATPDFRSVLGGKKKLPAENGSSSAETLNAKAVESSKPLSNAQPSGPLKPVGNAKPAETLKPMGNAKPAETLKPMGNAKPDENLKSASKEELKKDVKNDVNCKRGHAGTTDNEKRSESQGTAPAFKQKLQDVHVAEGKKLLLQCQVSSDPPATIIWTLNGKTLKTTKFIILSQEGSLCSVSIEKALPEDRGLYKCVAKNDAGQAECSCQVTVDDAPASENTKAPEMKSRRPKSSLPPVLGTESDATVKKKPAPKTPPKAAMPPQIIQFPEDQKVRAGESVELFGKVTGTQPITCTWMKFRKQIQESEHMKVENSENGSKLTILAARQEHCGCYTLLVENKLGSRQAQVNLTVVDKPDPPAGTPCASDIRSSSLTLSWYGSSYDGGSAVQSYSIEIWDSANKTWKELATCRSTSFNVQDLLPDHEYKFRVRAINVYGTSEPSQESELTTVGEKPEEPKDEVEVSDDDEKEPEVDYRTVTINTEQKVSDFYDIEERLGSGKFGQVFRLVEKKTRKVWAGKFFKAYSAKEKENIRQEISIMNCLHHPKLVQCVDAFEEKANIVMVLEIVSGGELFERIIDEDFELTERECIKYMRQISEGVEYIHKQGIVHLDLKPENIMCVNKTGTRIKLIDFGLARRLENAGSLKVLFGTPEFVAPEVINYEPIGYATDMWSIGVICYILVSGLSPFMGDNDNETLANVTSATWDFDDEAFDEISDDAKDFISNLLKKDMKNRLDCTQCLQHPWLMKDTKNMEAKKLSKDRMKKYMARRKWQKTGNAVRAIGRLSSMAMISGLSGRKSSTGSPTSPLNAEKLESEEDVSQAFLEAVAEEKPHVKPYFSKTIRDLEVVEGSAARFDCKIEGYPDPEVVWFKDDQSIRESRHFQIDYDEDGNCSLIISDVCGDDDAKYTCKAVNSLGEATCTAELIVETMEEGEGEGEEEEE

KinomeScan kinase panel [5] = target: T5, KinomeScan kinase panel (Homo sapiens, UniProt P36888, D835Y); conditions: FLT3(D835Y), 10 µM; read-out: score (%)
T5 construct: purchased DiscoveRx (KinomeScan)
T5 sequence (P36888 27-993 D835Y): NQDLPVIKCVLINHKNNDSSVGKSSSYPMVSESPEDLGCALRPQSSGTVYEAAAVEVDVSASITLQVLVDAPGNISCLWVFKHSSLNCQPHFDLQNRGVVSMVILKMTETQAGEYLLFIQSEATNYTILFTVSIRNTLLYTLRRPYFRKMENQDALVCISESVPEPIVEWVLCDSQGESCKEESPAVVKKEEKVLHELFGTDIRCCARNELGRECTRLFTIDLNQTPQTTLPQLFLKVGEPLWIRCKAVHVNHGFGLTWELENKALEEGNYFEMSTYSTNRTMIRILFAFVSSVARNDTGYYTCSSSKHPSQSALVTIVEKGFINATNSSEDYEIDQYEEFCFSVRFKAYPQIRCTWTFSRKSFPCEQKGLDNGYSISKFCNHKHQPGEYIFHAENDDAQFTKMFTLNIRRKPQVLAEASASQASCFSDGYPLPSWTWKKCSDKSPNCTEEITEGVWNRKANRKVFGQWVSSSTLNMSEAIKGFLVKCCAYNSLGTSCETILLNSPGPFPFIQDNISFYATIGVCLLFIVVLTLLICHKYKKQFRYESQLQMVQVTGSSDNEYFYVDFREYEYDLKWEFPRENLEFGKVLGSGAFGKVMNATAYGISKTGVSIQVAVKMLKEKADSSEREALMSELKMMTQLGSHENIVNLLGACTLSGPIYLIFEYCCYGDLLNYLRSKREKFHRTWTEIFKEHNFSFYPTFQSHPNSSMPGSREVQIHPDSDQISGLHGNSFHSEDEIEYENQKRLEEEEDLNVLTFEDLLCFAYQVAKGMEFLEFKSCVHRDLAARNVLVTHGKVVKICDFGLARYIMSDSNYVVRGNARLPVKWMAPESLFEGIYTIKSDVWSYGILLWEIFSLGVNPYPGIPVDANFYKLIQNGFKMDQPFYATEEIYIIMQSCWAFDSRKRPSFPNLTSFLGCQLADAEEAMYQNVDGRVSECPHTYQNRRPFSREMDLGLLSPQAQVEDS

KinomeScan kinase panel [6] = target: T6, KinomeScan kinase panel (Homo sapiens, UniProt Q8NI60); conditions: ADCK3, 10 µM; read-out: score (%)
T6 construct: purchased DiscoveRx (KinomeScan)
T6 sequence (Q8NI60 163-647): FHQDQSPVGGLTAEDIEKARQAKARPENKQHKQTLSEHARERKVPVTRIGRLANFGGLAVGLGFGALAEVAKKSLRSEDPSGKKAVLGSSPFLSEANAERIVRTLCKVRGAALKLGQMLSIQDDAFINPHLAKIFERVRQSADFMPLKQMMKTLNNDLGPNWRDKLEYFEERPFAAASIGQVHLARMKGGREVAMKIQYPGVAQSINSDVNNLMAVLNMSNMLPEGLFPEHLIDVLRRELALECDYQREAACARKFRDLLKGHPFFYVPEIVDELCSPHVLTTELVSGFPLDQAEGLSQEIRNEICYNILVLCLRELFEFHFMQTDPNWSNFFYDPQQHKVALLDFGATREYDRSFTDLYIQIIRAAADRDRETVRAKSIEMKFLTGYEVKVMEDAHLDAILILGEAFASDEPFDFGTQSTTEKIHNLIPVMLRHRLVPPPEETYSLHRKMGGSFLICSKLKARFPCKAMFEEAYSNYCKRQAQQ

KinomeScan kinase panel [7] = target: T7, KinomeScan kinase panel (Homo sapiens, UniProt P49336); conditions: CDK8, 10 µM
T7 construct: purchased DiscoveRx (KinomeScan)
T7 sequence (P49336 whole entry): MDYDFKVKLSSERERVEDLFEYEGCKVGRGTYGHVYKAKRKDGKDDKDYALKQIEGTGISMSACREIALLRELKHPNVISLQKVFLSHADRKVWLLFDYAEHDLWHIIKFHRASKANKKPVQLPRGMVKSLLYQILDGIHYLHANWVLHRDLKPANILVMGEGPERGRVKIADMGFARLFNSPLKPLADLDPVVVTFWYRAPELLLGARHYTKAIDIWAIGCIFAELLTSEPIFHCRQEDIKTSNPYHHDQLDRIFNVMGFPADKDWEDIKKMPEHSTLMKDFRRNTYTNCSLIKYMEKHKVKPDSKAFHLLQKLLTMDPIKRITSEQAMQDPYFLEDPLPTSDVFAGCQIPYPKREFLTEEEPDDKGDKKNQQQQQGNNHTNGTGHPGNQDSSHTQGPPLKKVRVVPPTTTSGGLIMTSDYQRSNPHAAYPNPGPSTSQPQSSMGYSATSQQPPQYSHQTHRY

KinomeScan kinase panel [8] = target: T8, KinomeScan kinase panel (Homo sapiens, UniProt Q9Y6R4); conditions: MAP3K4, 10 µM; read-out: score (%)
T8 construct: purchased DiscoveRx (KinomeScan)

KinomeScan kinase panel [9] = target: T9, KinomeScan kinase panel (Homo sapiens, UniProt P36888, N841I); conditions: FLT3(N841I), 10 µM; read-out: score (%)
T9 construct: purchased DiscoveRx (KinomeScan)
T9 sequence (P36888 27-993 N841I): T5 sequence (P36888 27-993 D835Y) with Y809D, N815I

| Structure (SMILES) | remaining binding at 10 µM (KinomeScan kinase panel [1]; ABL1(T315I)) | score (%) (KinomeScan kinase panel [2]) | remaining binding at 10 µM (KinomeScan kinase panel [3]) | remaining binding at 10 µM (KinomeScan kinase panel [4]) | remaining binding at 10 µM (KinomeScan kinase panel [5]) | remaining binding at 10 µM (KinomeScan kinase panel [6]) | score (%) (KinomeScan kinase panel [7]) | remaining binding at 10 µM (KinomeScan kinase panel [8]) | remaining binding at 10 µM (KinomeScan kinase panel [9]) | remaining binding at 10 µM (KinomeScan kinase panel [1]; ABL1(T315I)-nonphosphorylated) | remaining binding at 10 µM (KinomeScan kinase panel [1]; ABL1(T315I)-phosphorylated) |
| --- | --- | --- | --- | --- | --- | --- | --- | --- | --- | --- | --- |
| CCN1CCN(Cc2ccc(NC(=O)c3ccc(C)c(NC(=O)c4cncc(-c5cccs5)c4)c3)cc2C(F)(F)F)CC1 [ALW-II-41-27] | 0.7% | 0.5% | > 30% | > 30% | 3.3% | > 30% | 20% | > 30% | 0.75% |  |  |
| CCN1CCN(Cc2ccc(NC(=O)c3ccc(C)c(/C=C/c4cnc5[nH]ccc5c4Cl)c3)cc2C(F)(F)F)CC1 [HG-6-63-01, (E)-3-(2-(4-chloro-1H-pyrrolo[2,3-b]pyridin-5-yl)vinyl)-N-(4-((4-ethylpiperazin-1-yl)methyl)-3-(trifluoromethyl)phenyl)-4-methylbenzamide] | 0% | 0.1% | 30% | > 30% | 0.85% | > 30% | 9.6% | > 30% | 0.15% |  |  |
| CCN1CCN(Cc2ccc(NC(=O)c3ccc(C)c(C#Cc4cccnc4)c3)cc2C(F)(F)F)CC1 [XMD15-44] |  | 2.4% | > 30% | > 30% | 0.5% | > 30% | 8.2% | > 30% | 0% | 2.8% | 2.6% |

Source: publication PMC4457528, “Identification of Novel Small Molecule Inhibitors of Oncogenic RET Kinase” (PLoS ONE, 2015)
